{"source": "paper PMC9798004", "about": "(Frontiers in Psychiatry, 2022)", "key": {"HCRTR2": {"biological_target": "HCRTR2 (Homo sapiens, UniProt O43614)", "sequence (O43614 whole entry)": "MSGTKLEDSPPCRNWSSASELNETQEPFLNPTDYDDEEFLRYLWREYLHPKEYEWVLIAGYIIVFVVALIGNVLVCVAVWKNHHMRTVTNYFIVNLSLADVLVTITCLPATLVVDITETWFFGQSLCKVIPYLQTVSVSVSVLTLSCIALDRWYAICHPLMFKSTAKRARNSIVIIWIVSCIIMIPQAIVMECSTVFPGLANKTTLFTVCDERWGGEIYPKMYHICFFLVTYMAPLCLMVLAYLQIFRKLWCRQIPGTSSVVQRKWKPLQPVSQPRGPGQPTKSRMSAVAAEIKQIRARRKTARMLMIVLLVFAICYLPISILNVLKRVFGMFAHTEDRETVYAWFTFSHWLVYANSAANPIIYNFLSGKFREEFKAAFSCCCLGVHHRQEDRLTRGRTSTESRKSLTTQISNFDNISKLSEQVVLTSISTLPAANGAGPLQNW", "experiment": "PathHunter β-arrestin assay", "assay_type": "cell-based", "conditions": "antagonist mode vs EC80 of control agonist, 10-point curve"}, "ADRA2A": {"biological_target": "T1, ADRA2A (Homo sapiens, UniProt P08913)", "T1 construct": "host or cells: CHO", "T1 sequence (P08913 whole entry)": "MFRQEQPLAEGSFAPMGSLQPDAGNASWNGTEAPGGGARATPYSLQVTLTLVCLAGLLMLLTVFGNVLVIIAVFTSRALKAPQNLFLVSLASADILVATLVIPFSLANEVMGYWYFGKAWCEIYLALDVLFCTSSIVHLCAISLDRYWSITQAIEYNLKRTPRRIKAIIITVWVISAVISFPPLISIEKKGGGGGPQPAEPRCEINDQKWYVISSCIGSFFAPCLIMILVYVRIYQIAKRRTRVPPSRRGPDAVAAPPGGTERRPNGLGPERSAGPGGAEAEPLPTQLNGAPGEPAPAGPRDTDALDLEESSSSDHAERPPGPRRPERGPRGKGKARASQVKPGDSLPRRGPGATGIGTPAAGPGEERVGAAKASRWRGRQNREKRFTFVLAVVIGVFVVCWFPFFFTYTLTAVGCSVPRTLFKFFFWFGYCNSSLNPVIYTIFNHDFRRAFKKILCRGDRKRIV", "experiment": "PathHunter β-arrestin assay", "assay_type": "cell-based", "conditions": "antagonist mode vs EC80 of control agonist, 10-point curve"}, "FPR1": {"biological_target": "T2, FPR1 (Homo sapiens, UniProt P21462)", "T2 sequence (P21462 1-350)": "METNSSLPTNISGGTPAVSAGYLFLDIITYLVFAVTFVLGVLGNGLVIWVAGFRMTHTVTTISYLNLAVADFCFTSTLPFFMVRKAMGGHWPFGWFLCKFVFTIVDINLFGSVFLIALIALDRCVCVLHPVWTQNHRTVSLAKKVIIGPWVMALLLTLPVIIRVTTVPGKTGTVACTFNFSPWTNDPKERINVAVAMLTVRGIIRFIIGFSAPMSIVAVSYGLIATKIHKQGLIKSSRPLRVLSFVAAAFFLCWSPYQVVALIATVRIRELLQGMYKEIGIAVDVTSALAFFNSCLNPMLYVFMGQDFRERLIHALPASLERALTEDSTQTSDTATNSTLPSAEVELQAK", "experiment": "PathHunter β-arrestin assay", "assay_type": "cell-based", "conditions": "antagonist mode vs EC80 of control agonist, 10-point curve"}, "ADRA2B": {"biological_target": "ADRA2B (Homo sapiens, UniProt P18089)", "sequence (P18089 whole entry)": "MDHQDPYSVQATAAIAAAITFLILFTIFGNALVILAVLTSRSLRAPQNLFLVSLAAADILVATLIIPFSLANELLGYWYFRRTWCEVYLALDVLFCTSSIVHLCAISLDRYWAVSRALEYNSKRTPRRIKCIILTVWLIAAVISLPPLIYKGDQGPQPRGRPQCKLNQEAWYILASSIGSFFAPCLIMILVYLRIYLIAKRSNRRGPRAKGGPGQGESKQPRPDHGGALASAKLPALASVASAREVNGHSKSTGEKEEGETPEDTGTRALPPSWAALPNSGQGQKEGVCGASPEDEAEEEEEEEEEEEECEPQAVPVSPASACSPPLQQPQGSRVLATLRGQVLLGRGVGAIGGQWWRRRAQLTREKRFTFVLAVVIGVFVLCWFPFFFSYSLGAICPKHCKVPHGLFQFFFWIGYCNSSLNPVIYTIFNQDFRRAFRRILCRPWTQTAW", "assay_type": "cell-based"}, "CALCRL-RAMP2": {"biological_target": "CALCRL-RAMP2 (Homo sapiens, UniProt O60895+Q16602)", "sequence (Q16602 23-461)": "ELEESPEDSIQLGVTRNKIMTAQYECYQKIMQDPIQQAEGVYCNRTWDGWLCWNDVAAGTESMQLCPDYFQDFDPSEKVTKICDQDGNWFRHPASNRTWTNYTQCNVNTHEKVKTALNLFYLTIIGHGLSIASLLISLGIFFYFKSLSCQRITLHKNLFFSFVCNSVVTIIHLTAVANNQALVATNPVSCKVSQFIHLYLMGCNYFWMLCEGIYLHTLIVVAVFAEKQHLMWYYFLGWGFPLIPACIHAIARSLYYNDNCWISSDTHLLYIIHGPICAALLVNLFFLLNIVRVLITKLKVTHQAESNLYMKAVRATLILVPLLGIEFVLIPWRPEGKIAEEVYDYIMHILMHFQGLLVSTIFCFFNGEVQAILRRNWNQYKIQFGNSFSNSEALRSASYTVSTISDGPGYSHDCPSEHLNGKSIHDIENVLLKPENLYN", "sequence (O60895 43-175 partner)": "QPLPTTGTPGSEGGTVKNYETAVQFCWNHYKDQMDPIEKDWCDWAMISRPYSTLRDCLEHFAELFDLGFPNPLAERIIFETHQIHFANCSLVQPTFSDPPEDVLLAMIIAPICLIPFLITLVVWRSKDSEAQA", "experiment": "PathHunter β-arrestin assay", "assay_type": "cell-based", "conditions": "antagonist mode vs EC80 of control agonist, 10-point curve"}, "GPR119": {"biological_target": "T3, GPR119 (Homo sapiens, UniProt Q8TDV5)", "T3 construct": "purchased Eurofins DiscoverX (PathHunter gpcrMAX)", "T3 sequence (Q8TDV5 1-335)": "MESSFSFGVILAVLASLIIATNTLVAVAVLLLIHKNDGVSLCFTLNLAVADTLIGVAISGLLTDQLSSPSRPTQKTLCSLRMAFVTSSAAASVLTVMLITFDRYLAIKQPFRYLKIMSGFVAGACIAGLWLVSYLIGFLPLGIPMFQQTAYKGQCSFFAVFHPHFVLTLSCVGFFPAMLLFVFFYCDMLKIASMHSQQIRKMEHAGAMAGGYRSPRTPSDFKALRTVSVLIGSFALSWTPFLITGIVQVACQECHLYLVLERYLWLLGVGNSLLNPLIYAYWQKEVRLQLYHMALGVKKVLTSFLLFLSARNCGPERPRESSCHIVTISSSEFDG", "experiment": "PathHunter β-arrestin assay", "assay_type": "cell-based", "conditions": "antagonist mode, 30 μM"}, "MC4R": {"biological_target": "MC4R (Homo sapiens, UniProt P32245)", "sequence (P32245 whole entry)": "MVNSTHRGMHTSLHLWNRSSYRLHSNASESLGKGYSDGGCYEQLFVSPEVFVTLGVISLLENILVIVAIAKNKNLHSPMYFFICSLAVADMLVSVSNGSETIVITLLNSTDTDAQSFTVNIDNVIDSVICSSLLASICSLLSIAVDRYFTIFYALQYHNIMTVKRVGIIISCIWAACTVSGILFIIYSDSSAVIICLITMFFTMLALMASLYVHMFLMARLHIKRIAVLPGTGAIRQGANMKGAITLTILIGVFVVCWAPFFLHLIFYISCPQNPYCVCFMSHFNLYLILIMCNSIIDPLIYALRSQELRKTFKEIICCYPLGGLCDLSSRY", "experiment": "PathHunter β-arrestin assay", "assay_type": "cell-based", "conditions": "antagonist mode vs EC80 of control agonist, 10-point curve"}, "[1]": {"test_system": "AtT20 cells expressing human CB1 (hCB1)", "experiment": "LDH release cytotoxicity assay", "assay_type": "cell-based", "conditions": "30 μM", "description": "AtT20 cells expressing either human CB1 (hCB1) or CB2 (hCB2) receptors or wildtype (WT) were grown to confluence in T75 cm^2 flasks in Dulbecco's modified eagle medium containing 10% fetal bovine serum, 100 U penicillin/streptomycin, and 80 μg/mL hygromicyin (Sigma-Aldrich/Merck; Castle Hill, NSW, Australia). Cells were plated in 96-well-microplates at 30,000 cells per well and allowed to adhere overnight in 5% CO2. The following morning, cells were treated with either vehicle (0.1% DMSO; negative control), 30 μM Δ^9-THC, or 30 μM AMB-FUBINACA. At 1 or 6 h, the amount of lactate dehydrogenase in the cell media was tested, and compared with positive control (lysed cells) as per manufacturer's instructions (Dojindo Molecular Technologies, Inc.; Rockville, MD, USA), with readings performed on a Clariostar Plus plate reader (BMG Labtech, Mornington, VIC, Australia). Experiments were performed in triplicate. In order to measure any accumulating LDH, media was not changed after initial incubation. Data is represented as means ± S.E.M. A two-way ANOVA with was performed on the data at each time point, with Tukey's multiple comparison test (α = 0.05). A p < 0.05 was considered statistically significant."}, "ADRA2C": {"biological_target": "T4, ADRA2C (Homo sapiens, UniProt P18825)", "T4 sequence (P18825 1-462)": "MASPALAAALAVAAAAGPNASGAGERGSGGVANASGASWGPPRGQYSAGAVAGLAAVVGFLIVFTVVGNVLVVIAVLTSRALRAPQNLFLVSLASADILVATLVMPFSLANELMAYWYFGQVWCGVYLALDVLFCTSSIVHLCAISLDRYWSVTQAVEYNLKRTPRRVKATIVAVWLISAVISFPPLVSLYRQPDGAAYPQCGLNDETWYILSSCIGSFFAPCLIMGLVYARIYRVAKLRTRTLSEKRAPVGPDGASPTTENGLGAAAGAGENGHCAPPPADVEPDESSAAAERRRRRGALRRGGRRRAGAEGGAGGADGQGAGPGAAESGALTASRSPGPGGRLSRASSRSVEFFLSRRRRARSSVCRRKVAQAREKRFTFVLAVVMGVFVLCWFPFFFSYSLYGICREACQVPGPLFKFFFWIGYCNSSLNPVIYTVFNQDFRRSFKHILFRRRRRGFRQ", "experiment": "PathHunter β-arrestin assay", "assay_type": "cell-based"}, "GALR1": {"biological_target": "T5, GALR1 (Homo sapiens, UniProt P47211)", "T5 construct": "purchased Eurofins DiscoverX (PathHunter gpcrMAX)", "T5 sequence (P47211 whole entry)": "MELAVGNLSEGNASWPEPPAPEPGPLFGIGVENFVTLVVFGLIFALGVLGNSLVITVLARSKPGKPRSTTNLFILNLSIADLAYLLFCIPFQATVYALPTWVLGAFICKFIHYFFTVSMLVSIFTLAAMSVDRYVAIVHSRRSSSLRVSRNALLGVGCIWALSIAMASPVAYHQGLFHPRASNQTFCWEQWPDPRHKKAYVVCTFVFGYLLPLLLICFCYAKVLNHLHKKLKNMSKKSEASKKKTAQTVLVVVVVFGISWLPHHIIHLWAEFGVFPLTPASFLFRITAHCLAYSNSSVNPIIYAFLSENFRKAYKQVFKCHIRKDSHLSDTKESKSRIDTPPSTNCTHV", "experiment": "PathHunter β-arrestin assay", "assay_type": "cell-based", "conditions": "antagonist mode, up to 30 μM"}, "GIPR": {"biological_target": "T6, GIPR (Homo sapiens, UniProt P48546)", "T6 construct": "purchased Eurofins DiscoverX (PathHunter gpcrMAX)", "T6 sequence (P48546 22-466)": "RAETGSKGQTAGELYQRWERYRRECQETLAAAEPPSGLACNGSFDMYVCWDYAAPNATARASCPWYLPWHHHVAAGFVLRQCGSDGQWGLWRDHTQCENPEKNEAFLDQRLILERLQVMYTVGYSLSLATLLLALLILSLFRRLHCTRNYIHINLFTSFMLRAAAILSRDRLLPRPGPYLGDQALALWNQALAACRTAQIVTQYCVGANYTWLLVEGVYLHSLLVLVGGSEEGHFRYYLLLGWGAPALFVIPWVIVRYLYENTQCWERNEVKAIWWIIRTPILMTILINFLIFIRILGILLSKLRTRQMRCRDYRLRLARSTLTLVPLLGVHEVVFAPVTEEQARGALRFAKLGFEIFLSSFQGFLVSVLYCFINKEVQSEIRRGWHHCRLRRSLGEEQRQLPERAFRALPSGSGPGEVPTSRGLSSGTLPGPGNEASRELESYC", "experiment": "PathHunter β-arrestin assay", "assay_type": "cell-based", "conditions": "antagonist mode, up to 30 μM"}, "[2]": {"test_system": "GPCR off-targets with >5-fold difference in S/N and CoV (n = 36)", "experiment": "Follow-up concentration-response β-arrestin assays, panel of hits", "assay_type": "cell-based", "description": "Follow up experiments were prioritized based on the difference between S/N and CoV. Targets with a >5-fold difference between S/N and CoV were investigated for their potential contribution to the AMB-FUBINACA toxidrome with 10-point concentration-response curves generated in technical replicate (range 1.5–30 μM) using the EC80 of the relevant agonist, where applicable in antagonist mode. Simultaneous agonist and antagonist curves were run in parallel to ensure reliability of the assay (see Supplementary Table 2), with both RC50 and signal to background aligning with historical averages, and Z' >0.5. RC50 was estimated using a four-parameter fit (CBIS Data Analysis Suite, ChemInnovation, San Diego, CA) on normalized data."}, "[3]": {"parameters": "method as in PMID 35210552", "conditions": "rats; cited from earlier work"}}, "note": "Where two headings read alike, the source gives them in different places."}
{"compound": "COC(=O)[C@@H](NC(=O)c1nn(Cc2ccc(F)cc2)c2ccccc12)C(C)C", "note": "[AMB-FUBINACA]", "values": [{"measurement": "IC50", "setting": "HCRTR2", "value": 12.7, "unit": "µM"}, {"measurement": "IC50", "setting": "ADRA2A", "value": 12.1, "unit": "µM"}, {"measurement": "IC50", "setting": "FPR1", "value": 7.91, "unit": "µM"}, {"measurement": "IC50", "setting": "ADRA2B", "value": 2.29, "unit": "µM"}, {"measurement": "inhibitory activity at lower concentrations", "setting": "ADRA2B; antagonist mode, 1 μM", "value": "appreciable inhibitory activity"}, {"measurement": "IC50", "setting": "CALCRL-RAMP2", "value": 10.1, "unit": "µM"}, {"measurement": "inhibition in single-point screen", "setting": "GPR119", "value": "inhibited to the greatest extent of any antagonist mode target"}, {"measurement": "IC50", "setting": "MC4R", "value": 5.85, "unit": "µM"}, {"measurement": "LDH in cell media, normalized to total LDH", "setting": "[1]; 1 h", "value": "17.09 ± 7.03", "unit": "%"}, {"measurement": "LDH increase compared with vehicle", "setting": "[1]; 6 h", "value": "not observed"}, {"measurement": "IC50", "setting": "ADRA2C; antagonist mode vs EC80 of control agonist, 10-point curve", "value": 7.3, "unit": "µM"}, {"measurement": "inhibitory activity at lower concentrations", "setting": "ADRA2C; antagonist mode, 1 μM", "value": "appreciable inhibitory activity"}, {"measurement": "maximum inhibition", "setting": "ADRA2C; antagonist mode, concentration-response up to 30 μM", "value": 63.11, "unit": "%"}, {"measurement": "inhibitory activity in concentration-response", "setting": "GALR1", "value": "Activity was only observed at the highest concentration (30 μM)"}, {"measurement": "inhibitory activity in concentration-response", "setting": "GIPR", "value": "Activity was only observed at the highest concentration (30 μM)"}, {"measurement": "IC50", "setting": "[2]; antagonist mode (Figure 4), read-out: potencies at targets other than CB1", "value": "> 1", "unit": "µM"}, {"measurement": "IC50", "setting": "[2]; antagonist mode vs EC80 agonist, concentrations up to 30 μM, read-out: IC50 at 12 receptors (Figure 5)", "value": "> 30", "unit": "µM"}, {"measurement": "brain concentration relative to plasma", "setting": "[3]", "value": "~ 5 fold"}]}
